According to ChEMBL document CHEMBL1201862, “PubChem BioAssay data set” (2004):
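Tested at 5 concentrations; 48 h exposure; 96-well plates; endpoints linearly interpolated, else capped at highest concentration. The concentration for 50% growth inhibition is given as GI50.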 Calls of active or inactive are those of the source. No stated cut-off is given here; in the data, active = GI50 up to about 1.1 µM and inactive = higher.

Key:
Assay in all cases: NCI anticancer screen, dose series, 48 h
A549 = test system: A549
Hs-578T = test system: Hs-578T
SK-MEL-2 = test system: SK-MEL-2
EKVX = test system: EKVX
NCI-H522 = test system: NCI-H522
NCI-H460 = test system: NCI-H460
Malme-3M = test system: Malme-3M
OVCAR-5 = test system: OVCAR-5
CCRF-CEM = test system: CCRF-CEM
SNB-19 = test system: SNB-19
UACC-257 = test system: UACC-257
HL-60 = test system: HL-60
HT-29 = test system: HT-29
DU-145 = test system: DU-145
CAKI-1 = test system: CAKI-1
M14 = test system: M14
RXF 393 = test system: RXF 393
A498 = test system: A498
T47D = test system: T47D
NCI-H23 = test system: NCI-H23
SF-539 = test system: SF-539
BT-549 = test system: BT-549
OVCAR-3 = test system: OVCAR-3
SR = test system: SR
SNB-75 = test system: SNB-75
MOLT-4 = test system: MOLT-4
HCC 2998 = test system: HCC 2998
PC-3 = test system: PC-3
OVCAR-4 = test system: OVCAR-4
K562 = test system: K562
SF-268 = test system: SF-268
SK-MEL-5 = test system: SK-MEL-5
NCI-H226 = test system: NCI-H226
HOP-92 = test system: HOP-92
MDA-N = test system: MDA-N
TK-10 = test system: TK-10
HCT-15 = test system: HCT-15
SF-295 = test system: SF-295
U-251 = test system: U-251
MCF7 = test system: MCF7
SK-OV-3 = test system: SK-OV-3
SK-MEL-28 = test system: SK-MEL-28
LOX IMVI = test system: LOX IMVI
786-0 = test system: 786-0
HCT-116 = test system: HCT-116
ACHN = test system: ACHN
OVCAR-8 = test system: OVCAR-8
SW-620 = test system: SW-620
UO-31 = test system: UO-31
HOP-62 = test system: HOP-62
SN12C = test system: SN12C
MDA-MB-435 = test system: MDA-MB-435
MDA-MB-231 = test system: MDA-MB-231
UACC-62 = test system: UACC-62
NCI/ADR-RES = test system: NCI/ADR-RES
KM12 = test system: KM12
COLO 205 = test system: COLO 205
RPMI-8226 = test system: RPMI-8226
IGROV-1 = test system: IGROV-1

Measured: GI50

CO[C@H]1O[C@@H]2CO[C@@H](c3ccccc3)O[C@H]2C[C@]12CCC/C=C\CO2
inactive: A549 33.6 µM | Hs-578T 16.4 µM | SK-MEL-2 15.9 µM | EKVX 11.6 µM | NCI-H522 11.5 µM | NCI-H460 47.4 µM | Malme-3M 14.1 µM | OVCAR-5 60.1 µM | CCRF-CEM 10.4 µM | SNB-19 22.8 µM | UACC-257 22.2 µM | HL-60 15.9 µM | HT-29 17.7 µM | DU-145 33.5 µM | CAKI-1 25.9 µM | M14 15.8 µM | RXF 393 13.9 µM | A498 14 µM | T47D 18 µM | NCI-H23 21.1 µM | SF-539 14.6 µM | BT-549 12.6 µM | OVCAR-3 12.7 µM | SR 13.7 µM | SNB-75 22.5 µM | MOLT-4 12.9 µM | HCC 2998 18.7 µM | PC-3 16.2 µM | OVCAR-4 21.9 µM | K562 13.9 µM | SF-268 14.4 µM | SK-MEL-5 17.5 µM | NCI-H226 18.3 µM | HOP-92 13.5 µM | MDA-N 14.1 µM | TK-10 22.6 µM | SF-295 25.8 µM | U-251 12.6 µM | MCF7 15.2 µM | SK-OV-3 37.7 µM | SK-MEL-28 13.4 µM | LOX IMVI 12.6 µM | 786-0 14.2 µM | HCT-116 12.7 µM | ACHN 15.5 µM | OVCAR-8 12.1 µM | SW-620 20.6 µM | UO-31 14.3 µM | HOP-62 16.9 µM | SN12C 14.8 µM | MDA-MB-435 12.2 µM | MDA-MB-231 16.7 µM | UACC-62 27.4 µM | NCI/ADR-RES 21 µM | KM12 29.5 µM | COLO 205 13.9 µM
13 µM: HCT-15

COC1C=C(NCC2(CO)CCC2)N=C(N)N1 (stereo not drawn)
> 100 µM: HCT-15
inactive: A549 > 100 µM | Hs-578T > 100 µM | SK-MEL-2 > 100 µM | EKVX > 100 µM | NCI-H522 > 100 µM | RPMI-8226 > 100 µM | NCI-H460 > 100 µM | Malme-3M > 100 µM | OVCAR-5 > 100 µM | CCRF-CEM > 100 µM | SNB-19 > 100 µM | UACC-257 > 100 µM | HL-60 > 100 µM | HT-29 > 100 µM | DU-145 > 100 µM | CAKI-1 > 100 µM | M14 > 100 µM | RXF 393 > 100 µM | A498 95.1 µM | T47D > 100 µM | NCI-H23 24.8 µM | BT-549 > 100 µM | OVCAR-3 > 100 µM | SR > 100 µM | SNB-75 > 100 µM | MOLT-4 > 100 µM | HCC 2998 > 100 µM | PC-3 > 100 µM | OVCAR-4 > 100 µM | K562 > 100 µM | SF-268 > 100 µM | SK-MEL-5 > 100 µM | NCI-H226 > 100 µM | HOP-92 > 100 µM | MDA-N > 100 µM | SF-295 > 100 µM | U-251 > 100 µM | MCF7 95.1 µM | SK-OV-3 > 100 µM | SK-MEL-28 > 100 µM | LOX IMVI > 100 µM | 786-0 > 100 µM | HCT-116 > 100 µM | IGROV-1 > 100 µM | OVCAR-8 > 100 µM | SW-620 > 100 µM | UO-31 > 100 µM | HOP-62 > 100 µM | SN12C > 100 µM | MDA-MB-435 > 100 µM | MDA-MB-231 56.6 µM | UACC-62 > 100 µM | NCI/ADR-RES > 100 µM | KM12 > 100 µM | COLO 205 > 100 µM
